ChEMBL document CHEMBL1141371, “Cytotoxic 5-alkylresorcinol metabolites from the leaves of Grevillea robusta” (J Nat Prod, 2007)

Key:
MCF7 = assay: Cytotoxicity against human MCF7 cells; assay type: cell-based
SF-268 = assay: Cytotoxicity against human SF268 cells; assay type: functional, cell-based
NCI-H460 = assay: Cytotoxicity against human NCI-H460 cells; assay type: cell-based

| SMILES | IC50 (MCF7) [µM] | IC50 (SF-268) [µM] | IC50 (NCI-H460) [µM] |
| --- | --- | --- | --- |
| COc1cc(O)cc2c1-c1c(O)cc(cc1O)CCCCCCCCCCCCCC2 | 30.8 | 31.1 | 28.9 |
| Oc1cc2cc(c1)Oc1c(O)cc(cc1O)[C@H](O)CCCCCC/C=C/CCCCC2 [DEHYDROGRAVICYCLE] | 30 | 31.3 | 27.9 |
| CCCCCCCCCCCCCCCc1cc(O)cc(O)c1 [CARDOL] | 37 | 39.8 | 34.2 |
| Oc1cc(O)cc(CCCCC/C=C/CCCCCCCc2cc(O)cc(O)c2)c1 | 28.6 | 30.6 | 27.7 |
| Oc1cc(O)cc(CCCCCCCCCCCCCCc2cc(O)cc(O)c2)c1 [BISNORSTRIATOL] | 29.2 | 29.8 | 28.8 |
| Oc1cc2cc(c1)Oc1c(O)cc(cc1O)CCCCCCCCCCCCCC2 [ROBUSTOL] | 32.4 | 32.7 | 24 |
| Oc1cc(O)c2c(c1)CCCCCCCCCCCCCCc1cc(O)c-2c(O)c1 | 28.6 | 27.7 | 22.8 |
| Oc1cc(O)c2c(c1)CCCCC/C=C/CCCCCCCc1cc(O)c-2c(O)c1 [DEHYDROGRAVIPHANE] | 30.7 | 33.4 | 25.4 |
| COc1cc(O)cc(CCCCCCCCCCCCCCc2cc(O)cc(O)c2)c1 [BISGRAVILLOL] | 29.4 | 29.4 | 28.7 |
| COc1cc(O)cc2c1-c1c(O)cc(cc1O)CCCCCCC/C=C/CCCCC2 | 29.3 | 29.1 | 27.9 |
| Oc1cc2cc(c1)Oc1c(O)cc(cc1O)CCCCCCC/C=C/CCCCC2 [DEHYDROROBUSTOL A] | 31.8 | 33.1 | 28 |
| COc1cc(O)cc(CCCCCCC/C=C/CCCCCc2cc(O)cc(O)c2)c1 [DEHYDROBISGRAVILLOL] | 29.8 | 30.2 | 27 |
| Oc1cc2cc(c1)Oc1c(O)cc(cc1O)[C@H](O)CCCCCCCCCCCCC2 | 30.6 | 32.1 | 27 |
